Laboratory results taken from PubChem BioAssay (NCI).
Where “and” joins values, the source holds several entries; their conditions need not be identical. Identical values can stand only once.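 Protocol summary: plate cells (96-well), add compound at 5 concentrations, incubate 48 h, interpolate endpoints linearly. At the GI50, growth is halved. TGI marks complete inhibition of growth.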

Assays:
Experiment in all cases: inhibition of tumour cell growth, NCI panel, 48 h
IGROV1 ovarian = system: IGROV1 ovarian
786-0 renal = system: 786-0 renal
MALME-3M melanoma = system: MALME-3M melanoma
DU-145 prostate = system: DU-145 prostate
SK-OV-3 ovarian = system: SK-OV-3 ovarian
SK-MEL-28 melanoma = system: SK-MEL-28 melanoma
COLO 205 colon = system: COLO 205 colon
OVCAR-5 ovarian = system: OVCAR-5 ovarian
NCI/ADR-RES ovarian = system: NCI/ADR-RES ovarian
OVCAR-4 ovarian = system: OVCAR-4 ovarian

| Structure (SMILES) | GI50 (IGROV1 ovarian) | TGI (IGROV1 ovarian) [µM] | GI50 (786-0 renal) | TGI (786-0 renal) | GI50 (MALME-3M melanoma) [µM] | TGI (MALME-3M melanoma) [µM] | GI50 (DU-145 prostate) | TGI (DU-145 prostate) [µM] | GI50 (SK-OV-3 ovarian) [µM] | TGI (SK-OV-3 ovarian) [µM] | GI50 (SK-MEL-28 melanoma) [µM] | TGI (SK-MEL-28 melanoma) [µM] | GI50 (COLO 205 colon) [µM] | TGI (COLO 205 colon) [µM] | GI50 (OVCAR-5 ovarian) [µM] | TGI (OVCAR-5 ovarian) [µM] | GI50 (NCI/ADR-RES ovarian) [µM] | TGI (NCI/ADR-RES ovarian) [µM] | TGI (OVCAR-4 ovarian) [µM] | GI50 (OVCAR-4 ovarian) [µM] |
| --- | --- | --- | --- | --- | --- | --- | --- | --- | --- | --- | --- | --- | --- | --- | --- | --- | --- | --- | --- | --- |
| CCCCCSc1ccc2nc(NC(=O)OCC)sc2c1 | 0.945 µM | > 100 | 0.541 µM | > 100 µM | 0.514 | > 100 | 1.72 µM | > 100 | 0.535 | > 100 | 66.2 | > 100 | 0.53 | > 100 | 2.73 | > 100 | 0.357 | 3.82 | – | – |
| CC(=O)OCC1OC(SC2=N/C(=C\c3ccc(Br)s3)C(=O)N2c2ccccc2)C(OC(C)=O)C(OC(C)=O)C1OC(C)=O (configuration not stated) | 87.4 µM and 41.7 µM | > 100 | 17.8 µM and > 100 µM | 55.4 µM and > 100 µM | – | > 100 | > 100 µM and 42.8 µM | > 100 | – | – | – | > 100 | – | > 100 | – | > 100 | – | > 100 | > 100 | – |
| C=C(C)CC(C(=O)O)c1ccc(C)cc1 (configuration not stated) | – | > 100 | – | > 100 µM | – | > 100 | – | – | – | – | – | > 100 | – | > 100 | – | > 100 | – | – | > 100 | – |
| O=CCCn1[nH]c(=O)ccc1=O | – | > 100 | – | > 100 µM | – | > 100 | – | – | – | – | – | > 100 | – | – | – | > 100 | – | – | > 100 | – |
| COc1ccc(O)c(/C=N\Nc2ccccc2)c1 | – | – | – | > 100 µM | – | – | – | > 100 | – | > 100 | – | 91.4 | – | 26.2 | – | > 100 | – | > 100 | > 100 | – |
| c1cc[c]([Ge]([O]c2cccc3cccnc23)([c]2ccccc2)[c]2ccccc2)cc1 | 3.1 µM | 10.3 | 4.7 µM | 15.7 µM | 10.4 | 22.4 | – | – | 3.3 | 8.56 | 3.56 | 14.3 | 4.8 | 14.9 | 15.9 | 29.5 | – | – | 13.1 | 3.11 |
| CN1CCc2ccccc2C1Cc1ccccc1NC(=O)c1sc2ccccc2c1Cl (configuration not stated) | – | > 100 | – | > 100 µM | – | > 100 | – | > 100 | – | > 100 | – | > 100 | – | > 100 | – | – | – | > 100 | > 100 | – |
| COc1ccc2cc3c4cc(OC)c(OC)cc4ccn3c2c1 | – | > 100 | – | > 100 µM | – | > 100 | – | – | – | > 100 | – | > 100 | – | > 100 | – | > 100 | – | – | > 100 | – |
| COc1cccc(S(=O)(=O)NC2=NCCN2C(=S)SN2CCn3c2nsc3=S)c1 | 27.2 µM | 78.5 | 31.6 µM | > 100 µM | – | – | 44.2 µM | > 100 | 20.4 | 99.1 | 31.4 | 74.2 | 17.8 | 39.6 | 23 | 79.4 | 52.4 | > 100 | > 100 | 34.2 |
| N#CC(Sc1ccccc1)C(N)=O (configuration not stated) | – | > 100 | – | > 100 µM | – | > 100 | – | – | – | > 100 | – | – | – | > 100 | – | > 100 | – | – | > 100 | – |
| CC(=O)N1c2ccccc2N(C(C)=O)C1c1ccc(C2N(C(C)=O)c3ccccc3N2C(C)=O)[nH]1 | – | > 100 | – | > 100 µM | – | > 100 | – | – | – | > 100 | – | – | – | > 100 | – | > 100 | – | – | > 100 | – |
| C[C@]12Cc3conc3C(O)=C1CC[C@@H]1C2CC[C@@]2(C)C1CC[C@@H]2O (some centres not stated) | – | > 100 | – | > 100 µM | – | 87.2 | – | – | – | 89 | – | > 100 | – | 99.4 | – | > 100 | – | – | > 100 | – |
| c1cc(OCCN2CCCC2)ccc1CNc1ccc2nc(CCC3CCCCC3)[nH]c2c1 | 2.12 µM | 6.43 | 1.57 µM | 3.27 µM | 1.57 | 3.07 | 3.43 µM | 12.4 | 2.15 | 4.5 | – | – | 1.7 | 3.35 | 2.19 | 6.59 | 2.76 | 10.7 | 12.7 | 2.64 |
| CCN1/C(=C/C(C)=C/c2sc3ccc4ccccc4c3[n+]2CC)Sc2ccc3ccccc3c21 | 0.146 µM | 0.404 | 0.268 µM | 1.09 µM | – | – | 0.142 µM | 0.631 | 0.236 | 0.78 | 0.165 | 0.329 | – | – | 0.486 | 1.93 | 0.964 | 5.61 | 1.26 | 0.138 |
| C=CC12CCCCC1CC(C(=O)OC)=C(O)C2 (configuration not stated) | – | > 100 | – | > 100 µM | – | – | – | – | – | > 100 | – | > 100 | – | > 100 | – | > 100 | – | – | > 100 | – |
| COc1cc2c3c(n(CCCN=[N+]=[N-])c(=O)c2cc1OC)-c1ccccc1C3=O | – | – | 4.68 µM | 69.2 µM | – | – | 28 µM | > 100 | > 100 | > 100 | > 100 | > 100 | – | – | – | – | 4.59 | 75.2 | > 100 | 22.6 |
| C=CCCn1nc(-c2ccccc2)oc1=O | – | > 100 | – | > 100 µM | – | > 100 | – | – | – | > 100 | – | > 100 | – | > 100 | – | > 100 | – | – | > 100 | – |
| COc1ccc(C)c2sc(N(Cc3cccnc3)C(=O)c3ccc(C#N)cc3)nc12 | 52 µM | > 100 | 56.8 µM | > 100 µM | 52.1 | > 100 | 51.9 µM | > 100 | > 100 | > 100 | – | – | 24.7 | 70 | 47.5 | > 100 | 37.7 | > 100 | – | – |
| COc1ccc(C2(Cl)C(Cl)(C(F)(F)F)C2(Cl)C(F)(F)F)cc1 (configuration not stated) | – | 30.8 | – | 31 µM | – | – | – | – | – | 31.2 | – | 29 | – | 29.3 | – | 27 | – | – | 30 | – |
| Cc1nc2ccccc2c(=O)n1/N=C(\N=Nc1ccccc1)c1ccccc1Cl | – | > 100 | – | 99.9 µM | – | > 100 | – | – | – | 45.8 | – | > 100 | – | > 100 | – | > 100 | – | – | > 100 | – |
| CCCCN(CCCC)P(=O)(Oc1ccccc1)Oc1ccccc1 | – | – | 12.3 µM | 25.2 µM | – | – | 11.1 µM | 24 | 14.9 | 33.6 | 15.3 | 29.2 | 11.3 | 26.7 | 13.3 | 28.3 | 5.23 | 18.7 | 20.5 | 7.35 |
